The compounds below were run on NQO1 specific enzyme activity in BEAS-2B cells (assay: BEAS-2B NQO1 MTT Assay). Conditions: Homo sapiens, EC50 of NQO1 specific activity induction, 48 hours with compound.
Format: cell-based
Text: NAD(P)H:quinone oxidoreductase 1 (NQO1), also called DT diaphorase, is a homodimeric FAD-containing enzyme that catalyzes obligatory NAD(P)H-dependent two-electron reductions of quinones and protects cells against the toxic and neoplastic effects of free radicals and reactive oxygen species arising from one-electron reductions. The transcription of NQO1 is finely regulated by Nrf2, and thus NQO1 activity is a good marker for Nrf2 activation. On day one, frozen BEAS-2B cells (ATCC) are thawed in a water bath, counted, and re-suspended at a concentration of 250,000 cells/mL. Fifty microliters of cells are plated in 384 well black clear-bottomed plates. Plates are incubated at 37° C., 5% CO2 overnight. On day two, plates are centrifuged and 50 nL of compound or controls are added to the cells. Plates are then incubated at 37° C., 5% CO2 for 48 hours. On day four, medium is aspirated from the plate and crude cell lysates are made by adding 13 uL of 1× Cell Signaling Technologies lysis buffer with 1 Complete, Mini, EDTA-free Protease Inhibitor Tablet (Roche) for each 10 mL of lysis buffer . After lysis plates are incubated for 20 minutes at room temperature. Two microliters of lysate are removed for use in Cell Titer Glo assay (Promega) and MTT cocktail is prepared (Prochaska et. al. 1998) for measurement of NQO1 activity. Fifty microliters of MTT cocktail is added to each well, plate is centrifuged, and analyzed on an Envision plate reader (Perkin Elmer) using Absorbance 570 nm label for 30 minutes. Product formation is measured kinetically and the EC50 of NQO1 specific activity induction is calculated by plotting the change in absorbance (Delta OD/min) versus the log of compound concentration followed by 3-parameter fitting.
EC50s <1 nM (+++++), EC50s 10 nM-1 nM (++++), EC50s 10-100 nM (+++), EC50s 100 nM-1 uM (++), EC50s 1-10 uM (+), EC50s >10 uM (−), or were not determined (ND).

SMILES | EC50 [µM]
Cc1c(C(CC(=O)O)c2ccc(Cl)c(CN(C)C(=O)OC(C)(C)C)c2)ccc2c1nnn2C (centres unmarked) [Example 1, 3-[3-({[(tert-Butoxy)carbonyl](methyl)amino}methyl)-4-chlorophenyl]-3-(1,4-dimethyl-1H-1,2,3-benzotriazol-5-yl)propanoic acid] | 0.1 to 1
CN(Cc1cc(C(CC(=O)O)c2ccc3c(c2)nnn3C)ccc1Cl)C(=O)OC1CCCC1 (centres unmarked) [Example 2, 3-[4-Chloro-3-({[(cyclopentyloxy)carbonyl](methyl)amino}methyl)phenyl]-3-(1-methyl-1H-1,2,3-benzotriazol-5-yl)propanoic acid] | 1 to 10
CCC(C)OC(=O)N(C)Cc1cc(C(CC(=O)O)c2ccc3c(c2)nnn3C)ccc1Cl (centres unmarked) [Example 3, 3-[3-({[(Butan-2-yloxy)carbonyl](methyl)amino}methyl)-4-chlorophenyl]-3-(1-methyl-1H-1,2,3-benzotriazol-5-yl)propanoic acid] | 1 to 10
COc1cc(C(CC(=O)O)c2ccc(C)c(CN(C)C(=O)OC(C)(C)C)c2)cc2nnn(C)c12 (centres unmarked) [Example 4, 3-[3-({[(tert-Butoxy)carbonyl](methyl)amino}methyl)-4-methylphenyl]-3-(7-methoxy-1-methyl-1H-1,2,3-benzotriazol-5-yl)propanoic acid] | 1 to 10
CN(Cc1cc(C(CC(=O)O)c2ccc3c(c2)nnn3C)ccc1Cl)C(=O)OC1CCCCC1 (centres unmarked) [Example 5, 3-(4-Chloro-3-((((cyclohexyloxy)carbonyl)(methyl)amino)methyl)phenyl)-3-(1-methyl-1H-benzo[d][1,2,3]triazol-5-yl)propanoic acid] | 1 to 10
COc1cc(C(CC(=O)O)c2ccc(Cl)c(CN(C)C(=O)OC(C)(C)C)c2)cc2nnn(C)c12 (centres unmarked) [Example 6, 3-(3-(((tert-Butoxycarbonyl)(methyl)amino)methyl)-4-chlorophenyl)-3-(7-methoxy-1-methyl-1H-benzo[d][1,2,3]triazol-5-yl)propanoic acid] | 0.1 to 1
Cc1ccc(C(CC(=O)O)c2ccc3c(c2)nnn3C)cc1OCC(=O)N(C)C (centres unmarked) [Example 7, 3-(3-(2-(Dimethylamino)-2-oxoethoxy)-4-methylphenyl)-3-(1-methyl-1H-benzo[d][1,2,3]triazol-5-yl)propanoic acid] | 1 to 10
Cc1ccc(C(CC(=O)O)c2ccc3c(nnn3C)c2C)cc1CN(C)C(=O)Oc1ccc([N+](=O)[O-])cc1 (centres unmarked) [Example 8, 3-(1,4-Dimethyl-1H-benzo[d][1,2,3]triazol-5-yl)-3-(4-methyl-3-((methyl((4-nitrophenoxy)carbonyl)amino)methyl)phenyl)propanoic acid] | 1 to 10
COc1cc(C(CC(=O)O)c2ccc(Cl)c(CN(C)C(=O)OC3CCCC3)c2)cc2nnn(C)c12 (centres unmarked) [Example 9, 3-(4-Chloro-3-((((cyclopentyloxy)carbonyl)(methyl)amino)methyl)phenyl)-3-(7-methoxy-1-methyl-1H-benzo[d][1,2,3]triazol-5-yl)propanoic acid] | 1 to 10
COCC(C)(C)OC(=O)N(C)Cc1cc(C(CC(=O)O)c2ccc3c(nnn3C)c2C)ccc1C (centres unmarked) [Example 10] | 1 to 10
CC(=O)N(Cc1cc(C(CC(=O)O)c2ccc3c(nnn3C)c2C)ccc1C)CC1CCCCC1 (centres unmarked) [Example 11, 3-(3-((N-(Cyclohexylmethyl)acetamido)methyl)-4-methylphenyl)-3-(1,4-dimethyl-1H-benzo[d][1,2,3]triazol-5-yl)propanoic acid] | 1 to 10
CC(=O)N(Cc1ccccc1)Cc1cc(C(CC(=O)O)c2ccc3c(nnn3C)c2C)ccc1C (centres unmarked) [Example 12, 3-(3-((N-Benzylacetamido)methyl)-4-methylphenyl)-3-(1,4-dimethyl-1H-benzo[d][1,2,3]triazol-5-yl)propanoic acid] | 1 to 10
CC(=O)N(Cc1cccc(C)c1)Cc1cc(C(CC(=O)O)c2ccc3c(nnn3C)c2C)ccc1C (centres unmarked) [Example 13, 3-(1,4-Dimethyl-1H-benzo[d][1,2,3]triazol-5-yl)-3-(4-methyl-3-((N-(3-methylbenzyl)acetamido)methyl)phenyl)propanoic acid] | 1 to 10
CC(=O)N(Cc1cc(C(CC(=O)O)c2ccc3c(nnn3C)c2C)ccc1C)Cc1cccc(C)c1C (centres unmarked) [Example 14, 3-(1,4-Dimethyl-1H-benzo[d][1,2,3]triazol-5-yl)-3-(3-((N-(2,3-dimethylbenzyl)acetamido)methyl)-4-methylphenyl)propanoic acid] | 1 to 10
COc1ccc(CN(Cc2cc(C(CC(=O)O)c3ccc4c(nnn4C)c3C)ccc2C)C(C)=O)cc1 (centres unmarked) [Example 15, 3-(1,4-Dimethyl-1H-benzo[d][1,2,3]triazol-5-yl)-3-(3-((N-(4-methoxybenzyl)acetamido)methyl)-4-methylphenyl)propanoic acid] | 1 to 10
CCc1ccc(CN(Cc2cc(C(CC(=O)O)c3ccc4c(nnn4C)c3C)ccc2C)C(C)=O)cc1 (centres unmarked) [Example 16, 3-(1,4-Dimethyl-1H-benzo[d][1,2,3]triazol-5-yl)-3-(3-((N-(4-ethylbenzyl)acetamido)methyl)-4-methylphenyl)propanoic acid] | 1 to 10
CCC1CCC(CN(Cc2cc(C(CC(=O)O)c3ccc4c(nnn4C)c3C)ccc2C)C(C)=O)CC1 (centres unmarked) [Example 17, 3-(1,4-Dimethyl-1H-benzo[d][1,2,3]triazol-5-yl)-3-(3-((N-((4-ethylcyclohexyl)methyl)acetamido)methyl)-4-methylphenyl)propanoic acid] | 0.01 to 0.1
Cc1ccc(C(CC(=O)O)c2ccc3c(nnn3C)c2C)cc1CN(CC1CCCCC1)C(N)=O (centres unmarked) [Example 18, 3-(3-((1-(Cyclohexylmethyl)ureido)methyl)-4-methylphenyl)-3-(1,4-dimethyl-1H-benzo[d][1,2,3]triazol-5-yl)propanoic acid] | 1 to 10
CCC1CCC(CN(Cc2cc(C(CC(=O)O)c3ccc4c(nnn4C)c3C)ccc2C)C(N)=O)CC1 (centres unmarked) [Example 19, 3-(1,4-Dimethyl-1H-benzo[d][1,2,3]triazol-5-yl)-3-(3-((1-((4-ethylcyclohexyl)methyl)ureido)methyl)-4-methylphenyl)propanoic acid] | 1 to 10
COc1cc(C(CC(=O)O)c2ccc(C)c(CN(CC3CCCCC3)C(C)=O)c2)cc2nnn(C)c12 (centres unmarked) [Example 20, 3-(3-((N-(Cyclohexylmethyl)acetamido)methyl)-4-methylphenyl)-3-(7-methoxy-1-methyl-1H-benzo[d][1,2,3]triazol-5-yl)propanoic acid] | 0.1 to 1
CCC1CCC(CN(Cc2cc(C(c3ccc4c(nnn4C)c3C)C(C)(C)C(=O)O)ccc2C)C(N)=O)CC1 (centres unmarked) [Example 22, 3-(1,4-Dimethyl-1H-benzo[d][1,2,3]triazol-5-yl)-3-(3-((1-((4-ethylcyclohexyl)methyl)ureido)methyl)-4-methylphenyl)-2,2-dimethylpropanoic acid] | 0.001 to 0.01
Cc1ccc([C@@H](c2ccc3c(nnn3C)c2C)C(C)(C)C(=O)O)cc1CN(CC1CCCCCC1)C(N)=O [Example 23, (S)-3-(3-((1-(Cycloheptylmethyl)ureido)methyl)-4-methylphenyl)-3-(1,4-dimethyl-1H-benzo[d][1,2,3]triazol-5-yl)-2,2-dimethylpropanoic acid] | 0.001 to 0.01
CCC1CCC(O)(CN(Cc2cc([C@@H](c3ccc4c(nnn4C)c3C)C(C)(C)C(=O)O)ccc2C)C(N)=O)CC1 (stereo partly drawn) [Example 24, (S)-3-(1,4-Dimethyl-1H-benzo[d][1,2,3]triazol-5-yl)-3-(3-((1-((4-ethyl-1-hydroxycyclohexyl)methyl)ureido)methyl)-4-methylphenyl)-2,2-dimethylpropanoic acid] | 0.01 to 0.1
Cc1ccc([C@@H](c2ccc3c(nnn3C)c2C)C(C)(C)C(=O)O)cc1CN(CC1(O)CCCCCC1)C(N)=O [Example 25, (S)-3-(1,4-Dimethyl-1H-benzo[d][1,2,3]triazol-5-yl)-3-(3-((1-((1-hydroxycycloheptyl)methyl)ureido)methyl)-4-methylphenyl)-2,2-dimethylpropanoic acid] | 0.1 to 1
CC(=O)N(Cc1cc(C(c2ccc3c(nnn3C)c2C)C(C)(C)C(=O)O)ccc1C)CC1(O)CCCCC1 (centres unmarked) [Example 26, 3-(1,4-Dimethyl-1H-benzo[d][1,2,3]triazol-5-yl)-3-(3-((N-((1-hydroxycyclohexyl)methyl)acetamido)methyl)-4-methylphenyl)-2,2-dimethylpropanoic acid] | 0.1 to 1
CC(=O)N(Cc1cc(C(CC(=O)O)c2ccc3c(nnn3C)c2C)ccc1C)CC1CCCCCC1 (centres unmarked) [Example 27, 3-(3-((N-(Cycloheptylmethyl)acetamido)methyl)-4-methylphenyl)-3-(1,4-dimethyl-1H-benzo[d][1,2,3]triazol-5-yl)propanoic acid] | 0.1 to 1
